Assay results published in patent publication US9113629B2, “4-amino-6-(4-substituted-phenyl)-picolinates and 6-amino-2-(4-substituted-phenyl)-pyrimidine-4-carboxylates and their use as herbicides” (DOW AGROSCIENCES LLC, priority 2013, dated 2015).
Read-outs that look alike come from different tables or passages of the source.

How the values were obtained:
Test in all cases: Post-emergent Test III, herbicidal activity in wheat and barley
Format in all cases: in vivo
[1] = tested on: KCHSC: kochia (Kochia scoparia); details: for pest or weed control at 35 g/ha: 35 g ai/ha; for pest or weed control at 70 g/ha: 70 g ai/ha; for GR50 KCHSC / GR80 KCHSC: probit analysis; for GR50 KCHSC: dose for 50 percent growth reduction; for GR80 KCHSC: dose for 80 percent growth reduction
Summary of the method: (§1)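 Plants at the second to third true-leaf stage, grown in a greenhouse at about 18/17 °C with a 14 h photoperiod, were sprayed post-emergence at 187 L/ha with the high rate and ½× to 1/16× serial dilutions in an acetone/DMSO/crop-oil/surfactant carrier. Injury was rated visually at 21 d on a 0–100% scale, and GR20–GR90 were derived by probit analysis.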

[2] = tested on: SASKR: Russian thistle (Salsola iberica); details: for pest or weed control at 35 g/ha: 35 g ai/ha; for pest or weed control at 70 g/ha: 70 g ai/ha; for GR50 SASKR / GR80 SASKR: probit analysis; for GR50 SASKR: dose for 50 percent growth reduction; for GR80 SASKR: dose for 80 percent growth reduction
Summary of the method: as §1

[3] = tested on: VERPE: bird's-eye speedwell (veronica persica); details: for pest or weed control at 35 g/ha: 35 g ai/ha; for pest or weed control at 70 g/ha: 70 g ai/ha; for GR50 VERPE / GR80 VERPE: probit analysis; for GR50 VERPE: dose for 50 percent growth reduction; for GR80 VERPE: dose for 80 percent growth reduction
Summary of the method: as §1

[4] = tested on: MATSS: scented mayweed (Matricaria chamomilla), pineappleweed (Matricaria matricarioides); details: for pest or weed control at 35 g/ha: 35 g ai/ha; for pest or weed control at 70 g/ha: 70 g ai/ha; for GR50 MATSS / GR80 MATSS: probit analysis; for GR50 MATSS: dose for 50 percent growth reduction; for GR80 MATSS: dose for 80 percent growth reduction
Summary of the method: as §1

[5] = tested on: HORSS: barley, including spring and winter (Hordeum vulgare); details: for pest or weed control at 35 g/ha: 35 g ai/ha; for pest or weed control at 70 g/ha: 70 g ai/ha; for GR20 HORSS: probit analysis
Summary of the method: as §1

[6] = tested on: VIOSS: wild pansy (Viola tricolor), field violet (Viola arvensis); details: for pest or weed control at 35 g/ha: 35 g ai/ha; for pest or weed control at 70 g/ha: 70 g ai/ha; for GR50 VIOSS / GR80 VIOSS: probit analysis; for GR50 VIOSS: dose for 50 percent growth reduction; for GR80 VIOSS: dose for 80 percent growth reduction
Summary of the method: as §1

[7] = tested on: TRZSS: wheat, including spring and winter (Triticum aestivum); details: for pest or weed control at 35 g/ha: 35 g ai/ha; for pest or weed control at 70 g/ha: 70 g ai/ha; for GR20 TRZSS: probit analysis
Summary of the method: as §1

[8] = Bassia scoparia, post-emergence, 504 h, 21 days after application, read-out: Visual Gorowth Reduction (%) 21 days After Application KCHSC
[9] = Salsola tragus, post-emergence, 504 h, 21 days after application, read-out: Visual Gorowth Reduction (%) 21 days After Application SASKR
[10] = Veronica persica, post-emergence, 504 h, 21 days after application, read-out: Visual Gorowth Reduction (%) 21 days After Application VERPE
[11] = Matricaria chamomilla, post-emergence, 504 h, 21 days after application, read-out: Visual Gorowth Reduction (%) 21 days After Application MATSS
[12] = Hordeum vulgare, post-emergence, 504 h, 21 days after application, read-out: Visual Gorowth Reduction (%) 21 days After Application HORSS
[13] = dose for 20 percent growth reduction (crop), 21 days after application
[14] = Viola tricolor, post-emergence, 504 h, 21 days after application, read-out: Visual Gorowth Reduction (%) 21 days After Application VIOSS
[15] = Triticum aestivum, post-emergence, 504 h, 21 days after application, read-out: Visual Gorowth Reduction (%) 21 days After Application TRZSS
[16] = Bassia scoparia, post-emergence, 504 h, Table 8, post-emergent, 21 d, read-out: Visual Growth Reduction (%) 21 Days After Application KCHSC
[17] = Salsola tragus, post-emergence, 504 h, Table 8, post-emergent, 21 d, read-out: Visual Growth Reduction (%) 21 Days After Application SASKR
[18] = Veronica persica, post-emergence, 504 h, Table 8, post-emergent, 21 d, read-out: Visual Growth Reduction (%) 21 Days After Application VERPE
[19] = Matricaria chamomilla, post-emergence, 504 h, Table 8, post-emergent, 21 d, read-out: Visual Growth Reduction (%) 21 Days After Application MATSS
[20] = Hordeum vulgare, post-emergence, 504 h, Table 8, post-emergent, 21 d, read-out: Visual Growth Reduction (%) 21 Days After Application HORSS
[21] = Table 8, dose for 20 percent growth reduction, 21 d
[22] = Viola tricolor, post-emergence, 504 h, Table 8, post-emergent, 21 d, read-out: Visual Growth Reduction (%) 21 Days After Application VIOSS
[23] = Triticum aestivum, post-emergence, 504 h, Table 8, post-emergent, 21 d, read-out: Visual Growth Reduction (%) 21 Days After Application TRZSS

## COC(=O)c1nc(-c2ccc(I)c(F)c2F)cc(N)c1Cl [Compound 129, Methyl 4-amino-3-chloro-6-(2,3-difluoro-4-iodophenyl)picolinate]
[1]; [8]
  pest or weed control at 35 g/ha: 85 to 94%
  pest or weed control at 70 g/ha: 95 to 100%
[1]; 21 days after application
  GR50 KCHSC: 7 g ai/ha
  GR80 KCHSC: 21 g ai/ha
[2]; [9]
  pest or weed control at 35 g/ha: 75 to 84%
  pest or weed control at 70 g/ha: 85 to 94%
[2]; 21 days after application
  GR50 SASKR: 6 g ai/ha
  GR80 SASKR: 41 g ai/ha
[3]; [10]
  pest or weed control at 35 g/ha: 30 to 44%
  pest or weed control at 70 g/ha: 45 to 59%
[3]; 21 days after application
  GR50 VERPE: 92 g ai/ha
  GR80 VERPE: >140 g ai/ha
[4]; [11]
  pest or weed control at 35 g/ha: 0 to 29%
  pest or weed control at 70 g/ha: 30 to 44%
[4]; 21 days after application
  GR50 MATSS: 89 g ai/ha
  GR80 MATSS: 131 g ai/ha
[5]; [12]
  pest or weed control at 35 g/ha: 85 to 94%
  pest or weed control at 70 g/ha: 85 to 94%
[5]; [13]
  GR20 HORSS: 1 g ai/ha
[6]; [14]
  pest or weed control at 35 g/ha: 75 to 84%
  pest or weed control at 70 g/ha: 95 to 100%
[6]; 21 days after application
  GR50 VIOSS: 17 g ai/ha
  GR80 VIOSS: 34 g ai/ha
[7]; [15]
  pest or weed control at 35 g/ha: 75 to 84%
  pest or weed control at 70 g/ha: 85 to 94%
[7]; [13]
  GR20 TRZSS: 1 g ai/ha

## COC(=O)c1nc(-c2ccc(I)c(F)c2)c(F)c(N)c1Cl [Compound 132]
[1]; [8]
  pest or weed control at 35 g/ha: 85 to 94%
  pest or weed control at 70 g/ha: 85 to 94%
[1]; Bassia scoparia, post-emergence, 504 h, 140 g ai/ha, 21 days after application, read-out: Visual Gorowth Reduction (%) 21 days After Application KCHSC
  pest or weed control at 140 g/ha: 95 to 100%
[1]; 21 days after application
  GR50 KCHSC: 4 g ai/ha
  GR80 KCHSC: 20 g ai/ha
[2]; [9]
  pest or weed control at 35 g/ha: 75 to 84%
  pest or weed control at 70 g/ha: 75 to 84%
[2]; Salsola tragus, post-emergence, 504 h, 140 g ai/ha, 21 days after application, read-out: Visual Gorowth Reduction (%) 21 days After Application SASKR
  pest or weed control at 140 g/ha: 75 to 84%
[2]; 21 days after application
  GR50 SASKR: 1 g ai/ha
  GR80 SASKR: 66 g ai/ha
[3]; [10]
  pest or weed control at 35 g/ha: 0 to 29%
  pest or weed control at 70 g/ha: 75 to 84%
[3]; Veronica persica, post-emergence, 504 h, 140 g ai/ha, 21 days after application, read-out: Visual Gorowth Reduction (%) 21 days After Application VERPE
  pest or weed control at 140 g/ha: 85 to 94%
[3]; 21 days after application
  GR50 VERPE: 58 g ai/ha
  GR80 VERPE: 99 g ai/ha
[4]; [11]
  pest or weed control at 35 g/ha: 0 to 29%
  pest or weed control at 70 g/ha: 30 to 44%
[4]; Matricaria chamomilla, post-emergence, 504 h, 140 g ai/ha, 21 days after application, read-out: Visual Gorowth Reduction (%) 21 days After Application MATSS
  pest or weed control at 140 g/ha: 30 to 44%
[4]; 21 days after application
  GR50 MATSS: >140 g ai/ha
  GR80 MATSS: >140 g ai/ha
[5]; [12]
  pest or weed control at 35 g/ha: 60 to 74%
  pest or weed control at 70 g/ha: 75 to 84%
[5]; Hordeum vulgare, post-emergence, 504 h, 140 g ai/ha, 21 days after application, read-out: Visual Gorowth Reduction (%) 21 days After Application HORSS
  pest or weed control at 140 g/ha: 95 to 100%
[5]; [13]
  GR20 HORSS: 9 g ai/ha
[6]; [14]
  pest or weed control at 35 g/ha: 95 to 100%
  pest or weed control at 70 g/ha: 95 to 100%
[6]; Viola tricolor, post-emergence, 504 h, 140 g ai/ha, 21 days after application, read-out: Visual Gorowth Reduction (%) 21 days After Application VIOSS
  pest or weed control at 140 g/ha: 95 to 100%
[6]; 21 days after application
  GR50 VIOSS: 9 g ai/ha
  GR80 VIOSS: 17 g ai/ha
[7]; [15]
  pest or weed control at 35 g/ha: 60 to 74%
  pest or weed control at 70 g/ha: 60 to 74%
[7]; Triticum aestivum, post-emergence, 504 h, 140 g ai/ha, 21 days after application, read-out: Visual Gorowth Reduction (%) 21 days After Application TRZSS
  pest or weed control at 140 g/ha: 75 to 84%
[7]; [13]
  GR20 TRZSS: 10 g ai/ha

## COc1c(N)nc(-c2ccc(I)c(F)c2F)nc1C(=O)O [Compound 89]
[1]; [8]
  pest or weed control at 35 g/ha: 85 to 94%
  pest or weed control at 70 g/ha: 85 to 94%
[1]; 21 days after application
  GR50 KCHSC: 12 g ai/ha
  GR80 KCHSC: 25 g ai/ha
[2]; [9]
  pest or weed control at 35 g/ha: 85 to 94%
  pest or weed control at 70 g/ha: 85 to 94%
[2]; 21 days after application
  GR50 SASKR: 9 g ai/ha
  GR80 SASKR: 21 g ai/ha
[3]; [10]
  pest or weed control at 35 g/ha: 95 to 100%
  pest or weed control at 70 g/ha: 95 to 100%
[3]; 21 days after application
  GR50 VERPE: 3 g ai/ha
  GR80 VERPE: 6 g ai/ha
[4]; [11]
  pest or weed control at 35 g/ha: 75 to 84%
  pest or weed control at 70 g/ha: 85 to 94%
[4]; 21 days after application
  GR50 MATSS: 14 g ai/ha
  GR80 MATSS: 36 g ai/ha
[5]; [12]
  pest or weed control at 35 g/ha: 60 to 74%
  pest or weed control at 70 g/ha: 60 to 74%
[5]; [13]
  GR20 HORSS: 3 g ai/ha
[6]; [14]
  pest or weed control at 35 g/ha: 95 to 100%
  pest or weed control at 70 g/ha: 95 to 100%
[6]; 21 days after application
  GR50 VIOSS: 11 g ai/ha
  GR80 VIOSS: 19 g ai/ha
[7]; [15]
  pest or weed control at 35 g/ha: 75 to 84%
  pest or weed control at 70 g/ha: 85 to 94%
[7]; [13]
  GR20 TRZSS: 1 g ai/ha

## Nc1cc(-c2ccc(Br)c(F)c2)nc(C(=O)O)c1Cl [Compound 110, 4-Amino-6-(4-bromo-3-fluorophenyl)-3-chloropicolinic acid]
[1]; [16]
  pest or weed control at 35 g/ha: 95 to 100%
  pest or weed control at 70 g/ha: 95 to 100%
[1]; Table 8, 21 d
  GR50 KCHSC: 1 g ai/ha
  GR80 KCHSC: 1 g ai/ha
[2]; [17]
  pest or weed control at 35 g/ha: 75 to 84%
  pest or weed control at 70 g/ha: 85 to 94%
[2]; Table 8, 21 d
  GR50 SASKR: 1 g ai/ha
  GR80 SASKR: 30 g ai/ha
[3]; Table 8, 21 d
  GR50 VERPE: >140 g ai/ha
  GR80 VERPE: >140 g ai/ha
[3]; [18]
  pest or weed control at 35 g/ha: 0 to 29%
  pest or weed control at 70 g/ha: 0 to 29%
[4]; [19]
  pest or weed control at 35 g/ha: 60 to 74%
  pest or weed control at 70 g/ha: 85 to 94%
[4]; Table 8, 21 d
  GR50 MATSS: 10 g ai/ha
  GR80 MATSS: 37 g ai/ha
[5]; [20]
  pest or weed control at 35 g/ha: 85 to 94%
  pest or weed control at 70 g/ha: 95 to 100%
[5]; [21]
  GR20 HORSS: 1 g ai/ha
[6]; Table 8, 21 d
  GR50 VIOSS: 51 g ai/ha
  GR80 VIOSS: 144 g ai/ha
[6]; [22]
  pest or weed control at 35 g/ha: 30 to 44%
  pest or weed control at 70 g/ha: 60 to 74%
[7]; [21]
  GR20 TRZSS: 1 g ai/ha
[7]; [23]
  pest or weed control at 35 g/ha: 85 to 94%
  pest or weed control at 70 g/ha: 85 to 94%
